Reference: patent publication US20250018047A1, “METHODS AND COMPOSITIONS FOR TARGETED PROTEIN DEGRADATION” (Ranok Therapeutics (Hangzhou) Co. Ltd., priority 2021, published 2025)
Counter-ions that a name gives are not always drawn.

Tests used:
KRAS(G12D)/SOS1 = biological target: T1, KRAS(G12D)/SOS1 (Homo sapiens, UniProt P01116, G12D); assay: KRAS(G12D)/SOS1 homogeneous time-resolved fluorescence (HTRF) assay; format: binding; details: absence of GTP, 4° C. for 3 hr
T1 construct: purchased Cisbio 63ADK000CB16PEG
T1 sequence (P01116 1-188 isoform P01116-2 G12D): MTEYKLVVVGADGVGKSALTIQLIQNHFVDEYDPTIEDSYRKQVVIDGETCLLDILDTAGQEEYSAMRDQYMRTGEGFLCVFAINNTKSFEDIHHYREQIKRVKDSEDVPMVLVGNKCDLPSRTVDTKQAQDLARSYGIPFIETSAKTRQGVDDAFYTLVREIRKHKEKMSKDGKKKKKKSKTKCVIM
Description: The test compound was mixed and incubated with reaction components, incubated in a sealed plate at 4° C. for 3 hr and fluorescence was measured using a PerkinElmer Envision plate reader.

[1] = biological target: BA/F3-KRAS(G12D) murine pro-B cell line stably expressing KRAS(G12D) (Homo sapiens, UniProt P01116, G12D, cells depend on it); assay: CellTiter-Glo cancer cell line proliferation assay, BA/F3-KRAS(G12D); format: cell-based; details: 24 hr, read-out: BAF3 at 24 hrs, IC50
BA/F3-KRAS(G12D) murine pro-B cell line stably expressing KRAS(G12D), sequence (P01116 whole entry G12D): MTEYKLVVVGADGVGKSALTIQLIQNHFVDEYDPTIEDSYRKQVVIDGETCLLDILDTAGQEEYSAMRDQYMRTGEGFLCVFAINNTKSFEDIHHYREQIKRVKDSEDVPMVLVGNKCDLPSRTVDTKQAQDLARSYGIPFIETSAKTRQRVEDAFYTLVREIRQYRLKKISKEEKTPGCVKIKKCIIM
Description: The following cancer cell lines were employed: AsPC-1 human pancreatic adenocarcinoma (ATCC, #CRL-1682); A-427 human lung carcinoma (ATCC, #HTB-53); BA/F3-KRAS(G12D) murine pro-B cell line stably expressing KRAS(G12D) (Precedo, Hefei, China). Cell lines were cultured according to ATCC and recommendations. BA/F3-KRAS(G12D) cells were cultured in RPMI 1640 media with 10% fetal calf serum, 100 units/mL penicillin and […] streptomycin, and 1% glutamine.
(§1) CellTiter-Glo® Reagent Cancer Cell Line Proliferation Assays
(§2) Cells were plated in 96-well tissue culture plates at 4,000 cells/well and incubated at 37° C./5% CO2 for 24 hr in 100 μl of media. 3-fold serial dilutions of each test compound were prepared ranging from 20 μM to 1.02 nM. Cells were then treated with test compounds at various concentrations with a final concentration of 0.5% DMSO/well, and then incubated at 37° C./5% CO2 for 24 hr. 100 μl of CellTiter-Glo® Reagent (Promega Corporation, Madison, WI) was added to each well and processed according manufacturer's protocol. Results were analyzed and IC50-values were calculated in GraphPad 7 software.

[2] = tested on: A-427 human lung carcinoma; assay: CellTiter-Glo cancer cell line proliferation assay, A-427; format: cell-based; details: Homo sapiens, A-427, 24 hr, read-out: A427 at 24 hrs, IC50
Description: (§3) Cell lines were cultured according to ATCC and recommendations.
as §1
as §2, with “3-fold serial dilutions of each test compound were prepared ranging from 20 μM to 1.02 nM.” left out

[3] = tested on: AsPC-1 human pancreatic adenocarcinoma; assay: CellTiter-Glo cancer cell line proliferation assay, AsPC-1; format: cell-based; details: Homo sapiens, ASPC1, 24 hr
Description: as §3, §1
as §2, with “3-fold serial dilutions of each test compound were prepared ranging from 20 μM to 1.02 nM.” left out

KRAS(G12D) = biological target: T2, KRAS(G12D) (Homo sapiens, UniProt P01116, G12D); assay: SW1990 WB assay (degradation DC50, Dmax); format: cell-based; details: Western blot, SW1990 cells
T2 construct: endogenous in cells; host or cells: SW1990
T2 sequence (P01116 1-188 isoform P01116-2 G12D): as the sequence (P01116 1-188 isoform P01116-2 G12D) above

Structure (SMILES) | IC50 (KRAS(G12D)/SOS1) | GI50 [1] | IC50 [2] | IC50 [3] | DC50 (KRAS(G12D)) | Dmax (KRAS(G12D))
Cc1ncsc1-c1ccc(CNC(=O)C2CC(O)CN2C(=O)C(NC(=O)C2CCN([C@H]3C[C@@H](COc4nc(N5CC6CCC(C5)N6)c5cnc(-c6cccc7cccc(Cl)c67)cc5n4)N(C)C3)CC2)C(C)(C)C)cc1 (stereo in doubt) [Compound 20, 1-[(3S,5S)-5-({[7-(8-chloronaphthalen-1-yl)-4-{3,8-diazabicyclo[3.2.1]octan-3-yl}pyrido[4,3-d]pyrimidin-2-yl]oxy}methyl)-1-methylpyrrolidin-3-yl]-N-[(2S)-1-[(2 S,4R)-4-hydroxy-2-({[4-(4-methyl-1,3-thiazol-5-yl)phenyl]methyl}carbamoyl)pyrrolidin-1-yl]-3,3-dimethyl-1-oxobutan-2-yl]piperidine-4-carboxamide] | > 1000 nM | > 1000 nM |  |  |  | 
C#Cc1cccc2cccc(-c3ncc4c(N5CC6CCC(C5)N6)nc(OCCN5CCN(CC6CCN(c7ccc8c(c7)C(=O)N(C7CCC(=O)NC7=O)C8=O)CC6)CC5)nc4c3F)c12 (stereo not shown) [Compound 1, 5-(4-((4-(2-((4-(3,8-diazabicyclo[3.2.1]octan-3-yl)-7-(8-ethynylnaphthalen-1-yl)-8-fluoropyrido[4,3-d]pyrimidin-2-yl)oxy)ethyl)piperazin-1-yl)methyl)piperidin-1-yl)-2-(2,6-dioxopiperidin-3-yl)isoindoline-1,3-dione hydrochloride] | 100 to 1000 nM | > 1000 nM | > 1000 nM |  |  | 
C#Cc1cccc2cccc(-c3ncc4c(N5CC6CCC(C5)N6)nc(OCCN5CCN(Cc6ccc7c(c6)C(=O)N(C6CCC(=O)NC6=O)C7=O)CC5)nc4c3F)c12 (stereo not shown) [Compound 2, 5-((4-(2-((4-(3,8-diazabicyclo[3.2.1]octan-3-yl)-7-(8-ethynylnaphthalen-1-yl)-8-fluoropyrido[4,3-d]pyrimidin-2-yl)oxy)ethyl)piperazin-1-yl)methyl)-2-(2,6-dioxopiperidin-3-yl)isoindoline-1,3-dione hydrochloride] | < 100 nM | > 1000 nM | > 1000 nM | > 1000 nM |  | 
C#Cc1cccc2cccc(-c3ncc4c(N5CC6CCC(C5)N6)nc(OCCC5CCN(CC6CCN(c7cccc8c7C(=O)N(C7CCC(=O)NC7=O)C8=O)CC6)CC5)nc4c3F)c12 (stereo not shown) [Compound 3, 4-(4-((4-(2-((4-(3,8-diazabicyclo[3.2.1]octan-3-yl)-7-(8-ethynylnaphthalen-1-yl)-8-fluoropyrido[4,3-d]pyrimidin-2-yl)oxy)ethyl)piperidin-1-yl)methyl)piperidin-1-yl)-2-(2,6-dioxopiperidin-3-yl)isoindoline-1,3-dione hydrochloride] | < 100 nM | 100 to 1000 nM | > 1000 nM |  |  | 
C#Cc1cccc2cccc(-c3ncc4c(N5CC6CCC(C5)N6)nc(OCCN5CCN(C(=O)C6CCN(c7ccc8c(c7)C(=O)N(C7CCC(=O)NC7=O)C8=O)CC6)CC5)nc4c3F)c12 (stereo not shown) [Compound 4, 5-(4-(4-(2-((4-(3,8-diazabicyclo[3.2.1]octan-3-yl)-7-(8-ethynylnaphthalen-1-yl)-8-fluoropyrido[4,3-d]pyrimidin-2-yl)oxy)ethyl)piperazine-1-carbonyl)piperidin-1-yl)-2-(2,6-dioxopiperidin-3-yl)isoindoline-1,3-dione formate] | > 1000 nM | > 1000 nM | > 1000 nM |  |  | 
C#Cc1cccc2cccc(-c3ncc4c(N5CC6CCC(C5)N6)nc(OC[C@@H]5CC[C@H](CN6CCN(Cc7ccc8c(c7)C(=O)N(C7CCC(=O)NC7=O)C8=O)CC6)N5C)nc4c3F)c12 (stereo partly drawn) [Compound 15, 5-((4-(((2R,5S)-5-(((4-(3,8-diazabicyclo[3.2.1]octan-3-yl)-7-(8-ethynylnaphthalen-1-yl)-8-fluoropyrido[4,3-d]pyrimidin-2-yl)oxy)methyl)-1-methylpyrrolidin-2-yl)methyl)piperazin-1-yl)methyl)-2-(2,6-dioxopiperidin-3-yl)isoindoline-1,3-dione formate] | < 100 nM | > 1000 nM | > 1000 nM |  |  | 
C#Cc1cccc2cccc(-c3ncc4c(N5CC6CCC(C5)N6)nc(OC[C@@H]5CC[C@H](CN6CCN(C(=O)C7CCN(c8ccc9c(c8)C(=O)N(C8CCC(=O)NC8=O)C9=O)CC7)CC6)N5C)nc4c3F)c12 (stereo partly drawn) [Compound 16, 5-(4-(4-(((2R,5S)-5-(((4-(3,8-diazabicyclo[3.2.1]octan-3-yl)-7-(8-ethynylnaphthalen-1-yl)-8-fluoropyrido[4,3-d]pyrimidin-2-yl)oxy)methyl)-1-methylpyrrolidin-2-yl)methyl)piperazine-1-carbonyl)piperidin-1-yl)-2-(2,6-dioxopiperidin-3-yl)isoindoline-1,3-dione hydrochloride] | < 100 nM | > 1000 nM | > 1000 nM |  |  | 
C#Cc1cccc2cc(O)cc(-c3nc(OC)c4c(N5CC6CCC(C5)N6)nc(OCC5(CN6CCN(CC7CCN(c8ccc9c(c8)CN(C8CCC(=O)NC8=O)C9=O)CC7)CC6)CC5)nc4c3F)c12 (stereo not shown) [Compound 78] | < 100 nM |  | < 100 nM | < 100 nM | < 100 nM | > 50%
C#Cc1cccc2cc(O)cc(-c3ncc4c(N5CC6CCC(C5)N6)nc(OCC5(CN6CCN(CC7CCN(c8ccc9c(c8)CN(C)C9=O)CC7)CC6)CC5)nc4c3F)c12 [Compound 81] | < 100 nM |  | 100 to 1000 nM | 100 to 1000 nM | > 1000 nM | 10 to 50%
C#Cc1cccc2cc(O)cc(-c3ncc4c(N5CC6CCC(C5)N6)nc(OCC5(CN6CCN(CC7CCN(CCC(=O)N[C@@H](C(=O)N8C[C@@H](O)C[C@@H]8C(=O)NCc8ccc(-c9scnc9C)cc8)C(C)(C)C)CC7)CC6)CC5)nc4c3F)c12 [Compound 83] | < 100 nM |  | > 1000 nM | > 1000 nM | > 1000 nM | 10 to 50%
C#Cc1c(F)ccc2cc(O)cc(-c3nc(OC)c4c(N5CC6CCC(C5)N6C(=O)C(F)(F)F)nc(OCC5(CN6CCN(CC7CCN(c8ccc9c(c8)CN(C8CCC(=O)NC8=O)C9=O)CC7)CC6)CC5)nc4c3F)c12 (stereo not shown) [Compound 93] | < 100 nM |  | > 1000 nM | 100 to 1000 nM | 100 to 1000 nM | 10 to 50%
C#Cc1cccc2cc(O)cc(-c3ncc4c(N5CC6CCC(C5)N6)nc(OCC5(CN6CCN(CC7CCN(c8ccc(NC9CCC(=O)NC9=O)cc8)CC7)CC6)CC5)nc4c3F)c12 (stereo not shown) [Compound 95] | < 100 nM |  | 100 to 1000 nM | 100 to 1000 nM | > 1000 nM | < 10%
C#Cc1cccc2cc(O)cc(-c3ncc4c(N5CC6CCC(C5)N6)nc(OCC5(CN6CCN(CC7CCN(c8ccc9c(c8)CN(C8CCC(=O)NC8=O)C9=O)CC7)[C@@H](C7CC7)C6)CC5)nc4c3F)c12 (stereo partly shown) [Compound 96] | < 100 nM |  | 100 to 1000 nM | < 100 nM | > 1000 nM | 10 to 50%
C=CC(=O)N1CCN(c2nc(OCC3(CN4CCN(CC5CCN(c6ccc7c(c6)CN(C6CCC(=O)NC6=O)C7=O)CC5)CC4)CC3)nc3c2CCN(c2cccc4cccc(Cl)c24)C3)C[C@@H]1CC#N (stereo partly shown) [Compound 98] | > 1000 nM |  | > 1000 nM | > 1000 nM | > 1000 nM | < 10%
C#Cc1c(F)ccc2cc(O)cc(-c3ncc4c(N5CC6CCC(C5)N6)nc(OCC5(CN6CCC(CN7CCN(c8ccc9c(c8)CN(C8CCC(=O)NC8=O)C9=O)CC7)CC6)CC5)nc4c3F)c12 (stereo not shown) [Compound 99] | < 100 nM |  | > 1000 nM | < 100 nM | < 100 nM | > 50%
C#Cc1c(F)ccc2cc(O)cc(-c3nc(OC)c4c(N5CC6CCC(C5)N6)nc(OCC5(CN6CCN(CC7CCN(c8ccc9c(c8)CN(C8CCC(=O)NC8=O)C9=O)CC7)CC6)CC5)nc4c3F)c12 (stereo not shown) [Compound 100] | < 100 nM |  | 100 to 1000 nM | < 100 nM | > 1000 nM | 10 to 50%
C#Cc1c(F)ccc2cc(O)cc(-c3ncc4c(N5CC6CCC(C5)N6)nc(OCC5(CN6CCC(C7CCN(c8ccc9c(c8)CN(C8CCC(=O)NC8=O)C9=O)CC7)CC6)CC5)nc4c3F)c12 (stereo not shown) [Compound 102] | < 100 nM |  | 100 to 1000 nM | < 100 nM | 100 to 1000 nM | 10 to 50%
C#Cc1c(F)ccc2cc(O)cc(-c3ncc4c(N5CC6CCC(C5)N6)nc(OCC5(CN6CCN(CC7CN(c8ccc9c(c8)CN(C8CCC(=O)NC8=O)C9=O)C7)CC6)CC5)nc4c3F)c12 (stereo not shown) [Compound 103] | < 100 nM |  | > 1000 nM | 100 to 1000 nM | > 1000 nM | 10 to 50%
